Several values for one entry are separate records, joined by “and”; a condition that tells them apart may be missing. Equal entries are not always repeated. Structures can show the parent of a compound that is named as a salt.
Columns and labels:
[1] = target: Sodium-dependent dopamine transporter (Rattus norvegicus, UniProt P23977)
[2] = target: Norepinephrine transporter (Rattus norvegicus, UniProt Q9JIA2)
[3] = target: 5-hydroxytryptamine receptor 2A (Rattus norvegicus, UniProt P14842)
[4] = target: Sodium-dependent serotonin transporter (Rattus norvegicus, UniProt P31652)
[5] = target: T1, Alpha-1A adrenergic receptor (Rattus norvegicus, UniProt P43140)
T1 sequence (P43140 whole entry): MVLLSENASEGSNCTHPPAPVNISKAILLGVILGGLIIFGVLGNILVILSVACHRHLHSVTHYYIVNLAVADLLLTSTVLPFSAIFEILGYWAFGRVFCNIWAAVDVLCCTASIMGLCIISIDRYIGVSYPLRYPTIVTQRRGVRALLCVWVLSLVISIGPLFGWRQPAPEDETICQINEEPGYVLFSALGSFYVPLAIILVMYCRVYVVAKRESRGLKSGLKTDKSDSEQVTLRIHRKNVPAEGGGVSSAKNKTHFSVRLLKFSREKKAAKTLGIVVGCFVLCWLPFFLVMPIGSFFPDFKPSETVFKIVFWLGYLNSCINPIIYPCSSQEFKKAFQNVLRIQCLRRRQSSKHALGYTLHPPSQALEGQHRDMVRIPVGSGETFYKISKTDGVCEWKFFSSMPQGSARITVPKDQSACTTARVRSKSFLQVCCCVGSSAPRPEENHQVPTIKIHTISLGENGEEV

Chain of 5-hydroxytryptamine receptor 2A (P14842 whole entry): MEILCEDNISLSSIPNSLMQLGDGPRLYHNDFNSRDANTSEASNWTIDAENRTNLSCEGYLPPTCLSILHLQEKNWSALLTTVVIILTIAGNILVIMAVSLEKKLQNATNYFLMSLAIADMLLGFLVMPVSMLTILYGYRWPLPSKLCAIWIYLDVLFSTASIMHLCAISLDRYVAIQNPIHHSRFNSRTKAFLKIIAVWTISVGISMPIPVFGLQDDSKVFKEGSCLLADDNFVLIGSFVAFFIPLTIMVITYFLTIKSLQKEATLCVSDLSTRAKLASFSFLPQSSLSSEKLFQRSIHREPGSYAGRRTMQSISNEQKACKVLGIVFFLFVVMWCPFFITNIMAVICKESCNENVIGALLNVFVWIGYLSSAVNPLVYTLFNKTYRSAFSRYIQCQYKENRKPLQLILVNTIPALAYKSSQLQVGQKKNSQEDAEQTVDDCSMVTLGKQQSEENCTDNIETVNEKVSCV
Chain of Sodium-dependent dopamine transporter (P23977 whole entry): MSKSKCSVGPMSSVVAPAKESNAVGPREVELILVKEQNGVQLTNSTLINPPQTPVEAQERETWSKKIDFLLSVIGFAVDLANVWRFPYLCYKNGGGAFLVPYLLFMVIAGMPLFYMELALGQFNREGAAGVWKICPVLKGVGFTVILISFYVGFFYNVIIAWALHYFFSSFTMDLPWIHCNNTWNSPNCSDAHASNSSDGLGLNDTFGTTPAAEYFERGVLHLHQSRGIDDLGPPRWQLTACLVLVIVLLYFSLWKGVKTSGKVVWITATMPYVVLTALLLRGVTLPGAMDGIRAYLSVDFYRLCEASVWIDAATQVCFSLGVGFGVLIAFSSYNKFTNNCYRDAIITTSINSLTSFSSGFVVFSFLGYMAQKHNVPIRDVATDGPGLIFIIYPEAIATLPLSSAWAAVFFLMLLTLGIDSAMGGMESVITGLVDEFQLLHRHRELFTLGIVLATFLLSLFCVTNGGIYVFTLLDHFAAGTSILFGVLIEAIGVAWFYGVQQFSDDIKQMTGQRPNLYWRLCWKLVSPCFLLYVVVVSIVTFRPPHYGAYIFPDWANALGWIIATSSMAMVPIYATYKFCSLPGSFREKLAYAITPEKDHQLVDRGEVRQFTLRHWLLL
Chain of Sodium-dependent serotonin transporter (P31652 whole entry): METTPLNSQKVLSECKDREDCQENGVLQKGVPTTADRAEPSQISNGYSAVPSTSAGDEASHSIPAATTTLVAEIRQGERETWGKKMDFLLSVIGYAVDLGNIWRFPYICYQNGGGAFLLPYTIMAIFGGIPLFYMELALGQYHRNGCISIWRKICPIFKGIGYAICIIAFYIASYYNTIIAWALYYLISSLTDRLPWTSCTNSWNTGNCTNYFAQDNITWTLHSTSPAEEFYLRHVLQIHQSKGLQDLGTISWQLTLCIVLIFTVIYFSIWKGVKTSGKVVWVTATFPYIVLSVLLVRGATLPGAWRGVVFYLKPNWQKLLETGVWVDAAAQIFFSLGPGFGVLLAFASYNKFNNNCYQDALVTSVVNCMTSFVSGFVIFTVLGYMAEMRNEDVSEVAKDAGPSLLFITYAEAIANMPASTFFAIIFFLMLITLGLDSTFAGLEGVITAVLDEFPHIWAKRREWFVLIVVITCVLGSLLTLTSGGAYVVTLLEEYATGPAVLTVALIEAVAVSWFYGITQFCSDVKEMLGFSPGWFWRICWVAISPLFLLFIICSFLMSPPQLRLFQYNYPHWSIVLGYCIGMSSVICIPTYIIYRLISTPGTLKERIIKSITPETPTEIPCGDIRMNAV

Ki [5]	Structure (SMILES)	Ki [1]	Ki [2]	Ki [3]	Ki [4]
	COCCCCC(=NOCCN)c1ccc(Cl)cc1 [CAS_68717]	462 nM	6.6 nM	1000 nM	2.76 nM
	CSc1ccc(C2CN3CCCC3c3ccccc32)cc1 (stereo unspecified)	69.8 nM			
274 nM	CSc1ccc([C@H]2CN3CCC[C@H]3c3ccccc32)cc1 [McN-5652-X-68]			142 nM	
	CN(C)C/C=C(/c1ccc(Br)cc1)c1cccnc1 [cis-[3-(4-Bromo-phenyl)-3-pyridin-3-yl-allyl]-dimethyl-amine;HCl]	> 10000 nM			
213 nM and 314 nM	CSc1ccc([C@@H]2CN3CCC[C@@H]3c3ccccc32)cc1 [McN-5652-Z-68]			939 nM and 208 nM	
	COc1ccc(OC[C@H]2CN(C)CC[C@@H]2c2ccccc2)cc1 [(3R,4S)-3-(4-Methoxy-phenoxymethyl)-1-methyl-4-phenyl-piperidine]	1040 nM			
	c1ccc2c(CCC3CCNCC3)c[nH]c2c1	1040 nM	513 nM	50.2 nM	1.72 nM
	COCCCC/C(=N\OCCN)c1ccc(C(F)(F)F)cc1 [(1E)-5-methoxy-1-[4-(trifluoromethyl)phenyl]pentan-1-one O-(2-aminoethyl)oxime]	> 10000 nM	299 nM		
	CN(C)CCCN1c2ccccc2CCc2ccc(Cl)cc21 [CLOMIPRAMINE HYDROCHLORIDE]	3810 nM			

Structure (SMILES)	Ki [5]	Ki [1]	Ki [2]	Ki [3]	Ki [4]
O=c1n(CCCN2CCN(c3cccc(Cl)c3)CC2)nc2ccccn12 [2-{3-[4-(3-chlorophenyl)piperazin-1-yl]propyl}[1,2,4]triazolo[4,3-a]pyridin-3(2H)-one]	84 nM	> 10000 nM	3800 nM		

Source: BindingDB's records for PubMed 2905001 (Mcneil Pharmaceutical, 1988)
